{"source": "paper PMC10609081", "about": "“In Vivo Trafficking of the Anticancer Drug Tris(8-Quinolinolato) Gallium (III) (KP46) by Gallium-68/67 PET/SPECT Imaging” (Molecules, 2023)", "key": {"[1]": {"assay": "Distribution/partition coefficients (logD, logP), shake flask with gamma counting", "format": "physicochemical", "conditions": "octanol/water, tracer level, mean ± SD", "procedure": "Tracer-level [^68Ga]KP46 and [^68Ga]Ga-acetate solutions (5–20 µL, 0.3–0.5 MBq) were added to a pre-equilibrated mixture (500 µL/500 µL) of octanol/water (for logP measurement) or octanol/PBS (for logD7.4 measurement). Samples were vortexed for two minutes in a Multi Vortex Mixer V-32 (Grant Bio). From each layer, a sample of 200 µL was taken and its radioactivity measured using a gamma counter."}, "[2]": {"assay": "ICP-MS analysis of 69Ga in tissues after oral bulk dose", "format": "in vivo, mice", "conditions": "bulk (group D), 4 h", "procedure": "Oral [^68/67Ga]KP46: The protocol for oral administration experiments reported here was devised on the basis of pilot experiments described in Supplementary Materials (Figure S12). For short-term (up to 4 h) studies with ^68Ga, awake (nonanaesthetised, to avoid suppressive effects of anaesthesia on digestive tract activity) mice that had been fasted for up to 14 h were given [^68Ga]KP46 (5–13 MBq) (group C, “tracer”, n = 3) or [^68Ga]KP46 and KP46 (5–8.5 MBq) (group D, “bulk”, n = 3) by oral gavage. The dose given orally to group D animals, prepared as described above, was 0.4 μmol in 400 μL, molar activity ca. 25 MBq/μmol. […] After separation of layers, a sample of 400 µL from each layer was transferred to fresh Eppendorf tubes and analysed with a gamma counter. Stomach content (72–77 mg), small intestine content (35–88 mg), and large intestine content (86–100 mg) samples from each mouse were analysed similarly by adding them directly to Eppendorf tubes containing a pre-equilibrated mixture of octanol (500 µL) and water (500 µL) before vortexing and centrifuging at 10,000 rpm for 10 min at 4 °C. From each layer, 430 µL was transferred to fresh Eppendorf tubes and analysed with a gamma counter; the solid residues were also counted. […]\nexpressed as mean ± SD (n = 3). […]"}, "[3]": {"parameters": "method as in PMID 16938349, PMID 21305117", "conditions": "bulk drug, spectrophotometric; cited from earlier work"}, "[4]": {"parameters": "method as in PMID 8687115", "conditions": "healthy mice, 2 weeks daily oral doses; cited from earlier work"}, "[5]": {"biological_target": "T1, human apo-transferrin (apo-Tf) (Homo sapiens, UniProt P02787)", "T1 construct": "purchased Sigma Aldrich", "T1 sequence (P02787 20-698)": "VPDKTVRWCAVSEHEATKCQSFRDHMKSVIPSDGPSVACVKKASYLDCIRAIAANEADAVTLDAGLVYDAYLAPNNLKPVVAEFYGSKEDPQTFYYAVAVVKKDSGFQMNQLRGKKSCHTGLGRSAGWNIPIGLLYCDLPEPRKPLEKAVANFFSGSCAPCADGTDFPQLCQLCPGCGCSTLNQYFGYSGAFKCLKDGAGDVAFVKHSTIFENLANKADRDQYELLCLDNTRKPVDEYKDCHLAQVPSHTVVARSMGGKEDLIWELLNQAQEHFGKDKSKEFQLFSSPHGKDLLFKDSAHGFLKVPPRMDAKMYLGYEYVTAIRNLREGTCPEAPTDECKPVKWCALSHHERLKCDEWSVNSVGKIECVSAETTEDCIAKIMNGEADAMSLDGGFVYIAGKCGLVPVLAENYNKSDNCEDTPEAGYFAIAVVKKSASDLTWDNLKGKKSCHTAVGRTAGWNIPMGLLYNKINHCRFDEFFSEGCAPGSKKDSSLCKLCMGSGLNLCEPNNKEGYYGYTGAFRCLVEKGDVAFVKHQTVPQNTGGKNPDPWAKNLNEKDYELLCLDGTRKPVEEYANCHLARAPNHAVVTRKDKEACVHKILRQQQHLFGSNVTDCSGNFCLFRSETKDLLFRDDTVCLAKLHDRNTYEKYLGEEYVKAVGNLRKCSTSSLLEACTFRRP", "assay": "Binding to apo-transferrin by size exclusion chromatography (PD MidiTrap G-25)", "format": "in vitro ADME", "conditions": "incubated with apo-Tf in the presence of bicarbonate, sampled over 48 h", "procedure": "Solutions of human apo-transferrin (apo-Tf, 2 mg/mL) and human serum albumin (HSA, 50 mg/mL) (both purchased from Sigma Aldrich) were dissolved in aqueous NaHCO3 (5 mM, pH = 8) and PBS (pH = 7.4), respectively. An amount of 1 MBq of tracer-level [^68Ga]KP46 (13–20 µL) or [^68Ga]gallium acetate (20–25 µL) was added to 1.2 mL of the apo-Tf solution and to a similar apo-Tf-free NaHCO3 solution (control). Similarly, [^68Ga]KP46 and [^68Ga]gallium acetate solutions were added to 1.5 mL PBS containing HSA or HSA-free PBS (control). The samples were incubated for 60 min at 37 °C (pH = 7–7.5). From each mixture, 0.5 mL was loaded into PD MidiTrap G-25 size exclusion chromatography cartridges that were preconditioned with 8 mL of NaHCO3 (5 mM) (for apo-Tf binding) or PBS (for HSA binding). Fractions (0.5 mL) were collected and counted with a Wallac gamma counter. Protein absorbance at 280 nm was measured using a Nanodrop spectrophotometer. To investigate the speciation of the Ga–KP46 complex in the presence of apo-Tf at later time points (up to 48 h), the experiment was repeated with ^67Ga."}, "[6]": {"assay": "Octanol extraction of serum, urine and gut contents after oral radiolabelled KP46 (speciation)", "format": "in vivo, mice", "conditions": "oral, tracer level (group E), 24 h", "procedure": "Serum and urine from the “tracer level” group (E) were subjected to octanol extraction 24 h postadministration to determine the fraction of ^67Ga that may have survived in the form of [^67Ga]KP46 after absorption from the gut.\nOral [^68/67Ga]KP46: The protocol for oral administration experiments reported here was devised on the basis of pilot experiments described in Supplementary Materials (Figure S12). For short-term (up to 4 h) studies with ^68Ga, awake (nonanaesthetised, to avoid suppressive effects of anaesthesia on digestive tract activity) mice that had been fasted for up to 14 h were given [^68Ga]KP46 (5–13 MBq) (group C, “tracer”, n = 3) or [^68Ga]KP46 and KP46 (5–8.5 MBq) (group D, “bulk”, n = 3) by oral gavage. The dose given orally to group D animals, prepared as described above, was 0.4 μmol in 400 μL, molar activity ca. 25 MBq/μmol. The mice were fasted for three hours before being anaesthetised and PET/CT scanned dynamically for one hour (see below for scanning protocol). After scanning, mice in both groups were culled by neck dislocation while still anaesthetised four hours post-oral administration for organ harvesting and gamma counting. Samples of blood, urine and contents of stomach, small intestine and large intestine (the organs/tissue with measurable activity; tumours were not included as they were insufficiently radioactive) from the mice in group C were used for octanol extraction (shake-flask method) to separate water-soluble (released) and lipid-soluble (intact KP46) ^68Ga. Serum samples were prepared by placing blood samples in a serum separator tube (brand VS367954, Fisher Scientific Ltd., Loughborough, UK) and centrifuging at 3000 rpm for 10 min. Serum (200–300 µL) and urine samples (150–180 µL, taken from the excised bladders) were directly added to Eppendorf tubes containing a pre-equilibrated mixture of octanol (500 µL) and water (500 µL). The tubes were vortexed for two minutes on a Multi Vortex Mixer V-32 (Grant Bio). After separation of layers, a sample of 400 µL from each layer was transferred to fresh Eppendorf tubes and analysed with a gamma counter. Stomach content (72–77 mg), small intestine content (35–88 mg), and large intestine content (86–100 mg) samples from each mouse were analysed similarly by adding them directly to Eppendorf tubes containing a pre-equilibrated mixture of octanol (500 µL) and water (500 µL) before vortexing and centrifuging at 10,000 rpm for 10 min at 4 °C. From each layer, 430 µL was transferred to fresh Eppendorf tubes and analysed with a gamma counter; the solid residues were also counted. Tissues from mice in group D were used after radioactive decay for measurements of nonradioactive ^69Ga content."}, "[7]": {"assay": "SPECT imaging and ex vivo biodistribution 24 h and 48 h after oral [67Ga]KP46, tracer (group E) and bulk (group F)", "format": "in vivo, mice", "conditions": "n = 4", "procedure": "The tracer-level samples for oral administration were prepared in the same manner but with 20 μL of KP46-free DMSO in place of the KP46 solution in DMSO.\nAll animal experiments were performed in accordance with the Animals (Scientific Procedures) Act, 1986, with protocols approved by the Animal Welfare and Ethical Review Body for King’s College London under project and personal licences approved by the UK Home Office. Tumour xenograft studies were performed on female NSG mice or female athymic nude mice after injecting them subcutaneously in the right shoulder with 2.5 × 10^6 A375 cells in 100 µL of PBS. All in vivo studies were conducted between 14 and 24 days after inoculation, with tumour volumes between 100 mm^3 and 580 mm^3 (see Supplementary Materials, Figure S11).\nFor long-term (up to 48 h) studies, a similar protocol was followed, but SPECT imaging using ^67Ga was repeated at intervals up to 48 h instead of PET imaging up to only 4 h postadministration. Athymic nude nu/nu mice bearing A375 xenografts were fasted for 7–14 h and divided in two groups: E (n = 4) and F (n = 4). Awake (nonanaesthetised) mice were orally administered with [^67Ga]KP46 (2–11 MBq, “tracer”, group E) or with [^67Ga]KP46 and KP46 (1–11 MBq, “bulk”, group F, given 0.4 μmol KP46 with molar activity ca. 15 MBq/μmol) and fasted for three hours. Mice in both groups were then anaesthetised and SPECT/CT scanned (see scanning protocol below) for one hour. Mice were then allowed to recover and feed. At 24 h postadministration, mice were reanaesthetised and rescanned, then group E mice were culled while still anaesthetised, and tissues were harvested for ex vivo gamma counting.\nPET/CT images were acquired with a nanoScan® PET/CT (Mediso Medical Imaging Systems, Budapest, Hungary) scanner operating in list mode using a 400–600 keV energy window and a coincidence window of 1:3. CT scans were acquired for anatomical reference and attenuation correction (55 keV X-ray, exposure time 1000 ms, and 360 projections and pitch 1). PET projection data were reconstructed using the Tera-tomo® software package provided with the scanner —a Monte Carlo-based fully 3D iterative algorithm with four iterations, six subsets, and 0.4 mm isotropic voxel size; corrections for attenuation, scatter, and dead-time were enabled. The data were then visualised and quantified using VivoQuant^© v.2.50 (InviCro, Boston, MA, USA) software. SPECT/CT imaging was performed on a NanoSPECT/CT Silver Upgrade scanner (Mediso; 4 heads, 4 × 9 1.0 mm multipinhole collimators) in helical scanning mode using energy windows centred around 93.20 ± 20% keV (primary), 184.60 ± 20% keV (secondary), and 300.00 ± 20% keV (tertiary). […] Images were coregistered and analysed using VivoQuant v2.50 (InviCro, Needham, MA, USA)."}, "[8]": {"conditions": "single oral administration with bulk gallium chloride (100 nmol), after five days; cited from earlier work"}}, "note": "Like-named read-outs stand apart in the source and are kept apart here."}
{"compound": "[Ga+3].[O-]c1cccc2cccnc12.[O-]c1cccc2cccnc12.[O-]c1cccc2cccnc12", "note": "[KP46, tris(8-quinolinolato)gallium (III)]", "values": [{"measurement": "logP(octanol/water)", "setting": "[1]", "result": "2.33 ± 0.28"}, {"measurement": "69Ga delivered to tumour by ICP-MS", "setting": "[2]", "result": "0.17 ± 0.1", "unit": "%ID/g"}, {"measurement": "69Ga in large intestine by ICP-MS", "setting": "[2]", "result": "23.7 ± 9.2", "unit": "%ID/g"}, {"measurement": "logP(octanol/water)", "setting": "[3]", "result": 0.88}, {"measurement": "accumulation of gallium in liver", "setting": "[4]", "result": "0.08 ± 0.04", "unit": "%ID/g"}]}
{"compound": "[67Ga+3].[O-]c1cccc2cccnc12.[O-]c1cccc2cccnc12.[O-]c1cccc2cccnc12", "note": "[[^67Ga]KP46]", "values": [{"measurement": "binding of 67Ga to apo-Tf", "setting": "[5]", "result": "very minor binding"}, {"measurement": "serum radioactivity extracted into octanol phase", "setting": "[6]", "result": "Less than 6%"}, {"measurement": "urine activity extracted into octanol phase", "setting": "[6]", "result": "less than 3%"}, {"measurement": "uptake in bone, ex vivo", "setting": "[7]; bulk level (group F), 48 h", "result": "2.55 ± 1.82", "unit": "%ID/g"}, {"measurement": "uptake in liver, ex vivo", "setting": "[7]; bulk level (group F), 48 h", "result": "1.34 ± 1.01", "unit": "%ID/g"}, {"measurement": "uptake in tumour, ex vivo", "setting": "[7]; bulk level (group F), 48 h", "result": "1.57 ± 0.48", "unit": "%ID/g"}, {"measurement": "activity in faeces, ex vivo", "setting": "[7]; tracer level (group E), 24 h", "result": "3.0 ± 2.9", "unit": "%ID/g"}]}
{"compound": "O=C([O-])CC(O)(CC(=O)[O-])C(=O)[O-].[67Ga+3]", "note": "[[^67Ga]gallium citrate]", "values": [{"measurement": "original measured activity remaining in the mice", "setting": "[8]", "result": "0.3 ± 0.08", "unit": "%"}]}
